Test system: CT-3 xenograft tumors (primary human colon tumor)
Test: CT-3 human colon tumor xenograft, combination with 5-fluorouracil (Example 2)
Format: in vivo, mice
Details: 5-fluorouracil alone, single dose 30 mg/kg/inj IV Day 15; study terminated Day 34
Source text: Two hundred eighteen (218) female SCID beige (C.B.-17/IcrHsd-Prkcd Lyst Skid Beige) mice (Harlan Sprague Dawley, Madison, Wis.) were started on the study at six to seven weeks of age. Animals were acclimated to the laboratory for at least two days prior to implantation of the tumor. Housing was in ventilated cage racks, and food and water were allowed ad libitum.
CT-3 tumor fragments from a primary human colon tumor were originally obtained from Sera Care, Inc (Oceanside, Calif.) (sent by Peter Chu, Biogen Idec, San Diego). A serially transplanted in-vivo xenograft line was established at Biogen Idec, Inc. and fragments from the third xenograft generation were cryopreserved. […]
On Day −1, the mice were implanted with BioMedics animal ID chips (Model IMI-1000; Seaford, Del.) SC on the left flank. […] Tumor size and body weight measurements were recorded at least twice weekly beginning on […]. When the tumors measured a minimum of 100 mg (Day 15), mice were randomized to treatment and control groups (see Table 2) based on tumor size and excluding tumors with non-progressive growth. […]
Tumor measurements were determined using digital calipers. Body weights and tumor size measurements were recorded on Day 6 and were continued twice weekly until the termination of the study. […]

SMILES: O=c1[nH]cc(F)c(=O)[nH]1 [5-fluorouracil]
- inhibition of tumor growth (change in tumor weight): significantly inhibited tumor growth throughout the study
